These are literature values, as cited in patent US20050158402A1, “Preparation of Chinese herbal composite recipe used in environmental sanitation” (priority 2004, published 2005).

“Also recorded” adds a separate entry of the source.

The subject of data set [1] is Columbia SK viruses.
Data set [2] relates to Shigella species. Conditions: in vitro.
The test system of data set [3] is Rhizopus stolonifer.
Data set [4] relates to C. albicans.
The subject of data set [5] is Penicillum.
Data set [6] has as its system type A hemolytic Streptococcus.
The test system of data set [7] is Cryptococcus neoformans.
Data set [8] relates to Ascarid.
For data set [9], the system named is bacteria.
Data set [10] deals with Shigella. Conditions: 1% matrine, in vitro.
Data set [11] has as its system Staphylococcus aureaus. Conditions: 1% matrine, in vitro.
For data set [12], the system named is Proteus. As to conditions: 1% matrine, in vitro.
Data set [13] has as its system E. Coli. As to conditions: 1% matrine, in vitro.
The subject of data set [14] is B-streptococcus. As to conditions: 1% matrine, in vitro.

Take evodiamine: the “anti-viruses effect on rats infected by Columbia SK viruses” value in [1] is “anti-viruses effect; also recorded: anti-virus effect”.
For santol, the “effective to Shigella species” value in data set [2] is on record as “effective”.
With `Cc1cc(O)c(C(=O)CCC(C)C)c(=O)o1` [pogostone], the “inhibitive effects on Rhizopus stolonifer” value in [3] is “The pogostone show apparently inhibitive effects on fungi”. Also, the “inhibitive effects on C. albicans” value in [4] is recorded as “The pogostone show apparently inhibitive effects on fungi”. For the same compound, the “inhibit the growth of fungi such as Penicillum” value in data set [5] is reported as 22(7): 318) The pogostone can inhibit the growth of fungi. In addition, the “inhibitive effect on type A hemolytic Streptococcus” value in [6] is on record as “stolonifer. It shows certain degree of inhibitive effect on type”. For the same compound, the “inhibitive effects on Cryptococcus neoformans” value in data set [7] is “The pogostone show apparently inhibitive effects on fungi”.
For `CC[C@@H]1[C@H]2CCCCN3[C@H]2[C@H](C[C@H]3[C@@H]2C[C@H](C)C(=O)O2)[C@@H]2[C@H]1OC(=O)[C@H]2C` [tuberostemonine], the “paralyze Ascarid” value in data set [8] is on record as “can paralyze”.
Turning to `C=C1[C@@H]2CC[C@@H](C2)[C@@]1(C)CC/C=C(/C)CO` [β -santol], in data set [9], the anti-bacteria effects entry is “The α - santol and β -santol show stronger anti-bacteria”.
Turning to `O=C1CCC[C@@H]2[C@H]3CCCN4CCC[C@@H](CN12)[C@@H]34` [matrine], the “bacteria inhibitive effects on Shigella” value in [10] was “bacteria inhibitive effects on Shigella, E. Coli, Proteus,”. Also, in data set [11], the “bacteria inhibitive effects on Staphylococcus aureaus” value is recorded as “bacteria inhibitive effects on Shigella, E. Coli, Proteus,”. Also, the “bacteria inhibitive effects on Proteus” value in data set [12] is recorded as “bacteria inhibitive effects on Shigella, E. Coli, Proteus,”. Besides, the “bacteria inhibitive effects on E. Coli” value in data set [13] is recorded as “bacteria inhibitive effects on Shigella, E. Coli, Proteus,”. The “bacteria inhibitive effects on B-streptococcus” value in data set [14] was “bacteria inhibitive effects on Shigella, E. Coli, Proteus,”.
Regarding `C/C(=C/CC[C@]1(C)C2C[C@@H]3[C@H](C2)C31C)CO` [α - santol], the anti-bacteria effects result in data set [9] was “The α - santol and β -santol show stronger anti-bacteria”.
